Test results published in PubChem BioAssay (NCI).
Where “and” joins values, the source holds several entries; their conditions need not be identical. Equal values may be shown once.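 Tested at 5 concentrations; 48 h exposure; 96-well plates; endpoints linearly interpolated, else capped at highest concentration. GI50 = concentration required for 50% inhibition of growth. TGI is the concentration that stops growth completely.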

How the values were obtained:
Experiment in all cases: NCI anticancer screen, dose series, 48 h
NCI-H460 lung = test system: NCI-H460 lung
SF-295 CNS = test system: SF-295 CNS
A549 NSCLC = test system: A549 NSCLC
NCI-H23 lung = test system: NCI-H23 lung
OVCAR-4 ovarian = test system: OVCAR-4 ovarian
MDA-MB-435 = test system: MDA-MB-435
UO-31 renal = test system: UO-31 renal
RPMI-8226 leukemia = test system: RPMI-8226 leukemia
MCF7 breast = test system: MCF7 breast
K-562 leukemia = test system: K-562 leukemia

Row | Compound | GI50 (NCI-H460 lung) | TGI (NCI-H460 lung) | GI50 (SF-295 CNS) | TGI (SF-295 CNS) | GI50 (A549 NSCLC) | TGI (A549 NSCLC) | GI50 (NCI-H23 lung) | TGI (NCI-H23 lung) | GI50 (OVCAR-4 ovarian) | TGI (OVCAR-4 ovarian) | GI50 (MDA-MB-435) | TGI (MDA-MB-435) | GI50 (UO-31 renal) | TGI (UO-31 renal) | GI50 (RPMI-8226 leukemia) | TGI (RPMI-8226 leukemia) | GI50 (MCF7 breast) | TGI (MCF7 breast) | GI50 (K-562 leukemia) | TGI (K-562 leukemia)
1 | C[C@]12CCc3sc(Nc4ccc(OC(F)(F)F)cc4)nc3C1=CC[C@@H]1[C@@H]2CC[C@]2(C)C(=O)CC[C@@H]12 | 3250 nM | 11.8 µM | 700 nM | 2.44 µM | 3350 nM | 16.1 µM | 3730 nM | 21.7 µM | 3310 nM | 25.8 µM | 2720 nM | 10.1 µM | 2060 nM | 4.73 µM | 1020 nM | 3.77 µM | 1820 nM | 4.14 µM | 1870 nM | 6.64 µM
2 | CSC(SC)(C(=O)O)c1cc(-c2c(Cl)cccc2Cl)no1 |  | > 100 µM |  | > 100 µM |  | > 100 µM |  | 79 µM |  | > 100 µM |  | > 100 µM |  | 92.2 µM |  | 50.4 µM |  | > 100 µM |  | > 100 µM
3 | COc1ccc2c(c1)OC1=C(C(=O)OC1)C2c1cc(OC)c2c(c1)OCCO2 (configuration not stated) | 40.8 nM | > 100 µM | 31.2 nM | > 100 µM | 60.3 nM | > 100 µM | 45.4 nM | > 100 µM | 173 nM | > 100 µM | 21 nM | 0.056 µM | 71 nM | > 100 µM | 87.1 nM | > 100 µM | 35.2 nM | > 100 µM | 43.2 nM | > 100 µM
4 | O=C(/C=C/c1ccccc1)Nc1ncc(Cc2ccccc2Cl)s1 | 333 nM | > 100 µM | 282 nM | 11.7 µM | 469 nM | > 100 µM | 708 nM | > 100 µM | > 100000 nM | > 100 µM | 97.2 nM | 0.344 µM | 614 nM | > 100 µM | 335 nM |  | 311 nM | > 100 µM | 223 nM | > 100 µM
5 | N[C@H](C(=O)O)[C@@H]1CC(Cl)=NO1 | 3220 nM | > 1000 µM | 7590 nM and 2630 nM | > 908 µM | 6060 nM | 678 µM | 38200 nM | > 1000 µM |  | > 653 µM | 25300 nM | > 645 µM | 26600 nM | 772 µM | 11100 nM | 811 µM | 4770 nM | 325 µM | 7160 nM | > 944 µM
6 | CCCOC(=O)N[C@H]1CCc2c(Cl)c(OC)c(OC)c(OC)c2-c2ccc(SC)c(=O)cc21 | < 11.2 nM | 0.944 µM | < 10 nM |  | < 15.3 nM | > 100 µM | < 10 nM | 32.5 µM | < 12 nM | > 100 µM | < 10 nM | < 0.01 µM | 74.7 nM | 27.9 µM | < 10 nM | 7.73 µM | < 10 nM | 13.1 µM | < 10 nM | > 100 µM
7 | O=C(O)CSCCc1ccccc1 |  | > 100 µM |  | > 100 µM |  | > 100 µM |  | > 100 µM |  | > 100 µM |  | > 100 µM |  | > 100 µM |  | > 100 µM |  | > 100 µM |  | > 100 µM
